Article PMC11748689, “Pharmacological and structural understanding of the Trypanosoma cruzi proteasome provides key insights for developing site-specific inhibitors” (The Journal of Biological Chemistry, 2024)
pIC50: −log10 of the molar value.

What was measured:
[1] = target: recombinant WT T. cruzi proteasome (chymotrypsin-like activity, β5) (Trypanosoma cruzi, UniProt V5BU39+V5C017); assay: biochemical; format: biochemical; conditions: for maximum % inhibition plateau, Chymotrypsin Assay, Wild-type: mean ± SD, N = 3 (N = 2 for DDD02091966), (a) mid-point plateau from biphasic curve fits
Method: Chymotrypsin-, trypsin-, and caspase-like activity assays were performed using a commercially available Proteasome-Glo 3-substrate system assay kit (catalog number G8532) (Promega Corporation) according to the manufacturers protocols and as previously described ([24]).
Prior to running assays, Proteasome-Glo buffer was used to reconstitute the luciferin detection reagent (containing a recombinant thermostable luciferase enzyme). The resuspended luciferin detection reagent was then mixed with Proteasome-Glo chymotrypsin-, trypsin- or caspase-like substrates (either 40 μM suc-Leu-Leu-Val-Tyr-aminoluciferin, 30 μM Z-Leu-Arg-Arg-aminoluciferin (Z is benzyloxycarbonyl) or 40 μM Z-Nle-Pro-Nle-Asp-aminoluciferin respectively (these concentrations represent 2x final assay concentrations)). These substrate mixtures were allowed to incubate at room temperature for 60 min prior to use to allow the removal of any contaminating free aminoluciferin.
Proteasome assays were carried out using 384-well, white, low-volume plates (catalog number 784904) (Greiner Bio-One) at room temperature (∼23 °C) in 8 μl reaction volumes. When activity checks were to be run in the presence or absence of a fixed concentration of proteasome inhibitor, 80 nL of the inhibitor (at a concentration 100x the required final assay concentration), or 80 nL dimethylsulfoxide (DMSO), were dispensed into assay plates using an Echo 550 acoustic dispenser (Labcyte).
A 1 in 2 dilution series of the various T. cruzi proteasome samples (native, recombinant WT, β4^R mutant, and Δβ1Δβ2 mutant) were produced in assay buffer (50 mM Tris–HCl, pH 7.5, 10 mM sucrose, 5 mM MgCl2, 1 mM DTT, 2 mM ATP, 150 mM NaCl, 1 mM EDTA, and 0.05 mg/ml bovine serum albumin). Subsequently, 4 μl of the various concentrations of diluted proteasome were added to assay plates using an electronic multichannel pipette (Integra Biosciences Ltd). When kinetic read activity checks were performed (Fig. 2), proteasome final assay concentrations used were 115 μg/ml, 115 μg/ml, and 230 μg/ml native proteasome (in the chymotrypsin, trypsin, and caspase assays, respectively), and 4.1 μg/ml, 3.4 μg/ml, or 1.4 μg/ml recombinant WT proteasome (in the chymotrypsin, trypsin, and caspase assays, respectively). When activity checks were to be run in the presence or absence of a proteasome inhibitor plates containing inhibitor or DMSO control were incubated with the relevant proteasome sample for 60 min at room temperature (this step was not included in activity check experiments where compounds were not used).
Following the 60 min incubation of proteasome and compound (if required), assays were initiated with the addition of 4 μl of substrate mix (containing substrate and the luciferin detection reagent) using an electronic multichannel pipette. Final assay concentrations of substrates used were either 20 μM Suc-Leu-Leu-Val-Tyr-aminoluciferin, 15 μM Z-Leu-Arg-Arg-aminoluciferin, or 20 μM Z-Nle-Pro-Nle-Asp-aminoluciferin for chymotrypsin-, trypsin- or caspase-like activity respectively.
Luminescence was read either kinetically or as an endpoint read using an EnVision 2102 Multilabel Reader (PerkinElmer, Inc) with 0.2 s per well reading time. When kinetic assays were run, luminescence was read every 5 min for 90 min. Endpoint assays were run for 60 min before luminescence was read. All data processing and linear fit analyses were performed using Microsoft Excel for Microsoft 365 software (Redmond, Washington; https://www.microsoft.com/).
When proteasome inhibitors were to be screened in the chymotrypsin, trypsin, and caspase assays, test compounds were dispensed into assay wells using an ECHO 550 acoustic dispenser (Labcyte) (final DMSO concentration 1%). Compounds were tested in either a 10-point concentration series (30 μM top final assay concentration, 1 in 3 dilution series) or a 12-point concentration series (30 μM top final assay concentration, 1 in 2.5 dilution series).

[2] = target: human proteasome (chymotrypsin activity) (Homo sapiens, UniProt P28074); assay: Human proteasome chymotrypsin activity assay; format: biochemical; conditions: dose response curve, n = 2 (Fig. S7)
Method: Human proteasome assays were carried out as described in ([42]).

Sequence of recombinant WT T. cruzi proteasome (chymotrypsin-like activity, β5) (V5BGL9 entry or part of it): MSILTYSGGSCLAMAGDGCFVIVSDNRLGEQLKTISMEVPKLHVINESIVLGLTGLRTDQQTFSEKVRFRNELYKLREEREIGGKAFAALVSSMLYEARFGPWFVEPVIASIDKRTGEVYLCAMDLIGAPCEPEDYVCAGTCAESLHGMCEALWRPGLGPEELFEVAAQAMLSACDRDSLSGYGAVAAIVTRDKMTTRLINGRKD
Sequence of recombinant WT T. cruzi proteasome (chymotrypsin-like activity, β5) (V5BU39 entry or part of it): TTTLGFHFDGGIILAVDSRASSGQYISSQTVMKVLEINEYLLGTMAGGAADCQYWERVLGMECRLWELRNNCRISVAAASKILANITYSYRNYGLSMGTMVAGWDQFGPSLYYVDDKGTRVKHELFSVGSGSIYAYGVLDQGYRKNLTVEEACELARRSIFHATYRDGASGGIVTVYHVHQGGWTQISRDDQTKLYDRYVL
Sequence of recombinant WT T. cruzi proteasome (chymotrypsin-like activity, β5) (V5C017 entry or part of it): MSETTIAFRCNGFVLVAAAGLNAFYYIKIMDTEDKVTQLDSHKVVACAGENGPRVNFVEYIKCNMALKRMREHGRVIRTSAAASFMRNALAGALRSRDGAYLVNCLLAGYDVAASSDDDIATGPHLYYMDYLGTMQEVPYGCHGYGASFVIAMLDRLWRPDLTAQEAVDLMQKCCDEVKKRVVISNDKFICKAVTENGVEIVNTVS

| Structure (SMILES) | pIC50 [1] | inhibition of chymotrypsin activity, recombinant WT proteasome, fixed concentration ([1]; 1 μM compound, endpoint activity vs proteasome concentration (Fig. 7A)) | maximum % inhibition plateau, Chymotrypsin Assay, Wild-type [1] [%] | inhibition of the human chymotrypsin activity [2] |
| --- | --- | --- | --- | --- |
| O=C(Nc1ccc(F)c(-c2cn3nc(-c4ccccc4)cnc3n2)c1)N1CCCC1 [DDD01012248] | 7.28 | partial inhibition | 67.7 ± 4.0 |  |
| O=C(Nc1ccc(F)c(C(=O)NC2CC2)c1)c1ccc(COc2ccccc2)o1 [DDD02091966, N-(3-(cyclopropylcarbamoyl)-4-fluorophenyl)-5-(phenoxymethyl)furan-2-carboxamide] | 7.46 |  | 51.6 ± 1.8 | no inhibition |
